Results published in ChEMBL document CHEMBL1201862, “PubChem BioAssay data set” (2004).
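Tested at 5 concentrations; 48 h exposure; 96-well plates; endpoints linearly interpolated, else capped at highest concentration. At the GI50, growth is halved.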 The source made the active and inactive calls. Rule as the data show it: active = GI50 up to about 1.1 µM and inactive = higher.

Key:
Experiment in all cases: growth of human tumour cells (NCI), 48 h
HCT-116 = tested on: HCT-116
HCC 2998 = tested on: HCC 2998
EKVX = tested on: EKVX
KM12 = tested on: KM12
SK-MEL-2 = tested on: SK-MEL-2
U-251 = tested on: U-251
PC-3 = tested on: PC-3
DU-145 = tested on: DU-145
MCF7 = tested on: MCF7
SK-MEL-5 = tested on: SK-MEL-5
SNB-19 = tested on: SNB-19
CAKI-1 = tested on: CAKI-1
SNB-75 = tested on: SNB-75
LOX IMVI = tested on: LOX IMVI
SR = tested on: SR
SF-295 = tested on: SF-295
MDA-MB-435 = tested on: MDA-MB-435
NCI-H23 = tested on: NCI-H23
IGROV-1 = tested on: IGROV-1

Measured: GI50

Cc1ccc2c(c1)[nH]c(=S)n2C=C1C(=O)CC(C)(C)CC1=O
inactive: HCT-116 > 100 µM | HCC 2998 > 100 µM | EKVX 18.9 µM | KM12 > 100 µM | SK-MEL-2 > 100 µM | U-251 > 100 µM | PC-3 > 100 µM | DU-145 > 100 µM | MCF7 > 100 µM | SK-MEL-5 > 100 µM | SNB-19 > 100 µM | CAKI-1 > 100 µM | SNB-75 > 100 µM | LOX IMVI > 100 µM | SR > 100 µM | SF-295 > 100 µM | MDA-MB-435 > 100 µM | NCI-H23 > 100 µM | IGROV-1 15.8 µM

CCOC(=O)c1cccc([N+](=O)[O-])c1N
inactive: HCT-116 > 100 µM | HCC 2998 > 100 µM | EKVX 6.11 µM | KM12 > 100 µM | SK-MEL-2 > 100 µM | U-251 > 100 µM | PC-3 > 100 µM | DU-145 > 100 µM | MCF7 > 100 µM | SK-MEL-5 > 100 µM | SNB-19 > 100 µM | CAKI-1 > 100 µM | SNB-75 62.1 µM | LOX IMVI > 100 µM | SR > 100 µM | SF-295 > 100 µM | MDA-MB-435 > 100 µM | NCI-H23 > 100 µM | IGROV-1 > 100 µM

Cc1c(C#N)c2nnn(-c3ccc([N+](=O)[O-])cc3)c(=O)n2c1-c1ccccc1
inactive: HCT-116 6.62 µM | HCC 2998 7.43 µM | EKVX 8.89 µM | KM12 5.6 µM | SK-MEL-2 9.57 µM | U-251 4.26 µM | PC-3 4.26 µM | DU-145 9.44 µM | MCF7 6.22 µM | SK-MEL-5 12.6 µM | SNB-19 11.6 µM | CAKI-1 12.1 µM | SNB-75 19.8 µM | LOX IMVI 10.3 µM | SR 4.62 µM | SF-295 3.57 µM | MDA-MB-435 13 µM | NCI-H23 3.9 µM | IGROV-1 15.3 µM

O=C(Nc1ccc(Cl)cc1)[C-](C(=O)c1ccc(Br)cc1)[n+]1cccc(-c2ccc(Cl)cc2)n1
inactive: HCT-116 3.09 µM | HCC 2998 6.78 µM | EKVX 3.49 µM | KM12 3.1 µM | SK-MEL-2 3.57 µM | U-251 3.87 µM | PC-3 3.95 µM | DU-145 5.45 µM | MCF7 1.41 µM | SK-MEL-5 3.18 µM | SNB-19 8.41 µM | CAKI-1 2.56 µM | SNB-75 6.49 µM | LOX IMVI 2.97 µM | SR 2.27 µM | SF-295 2.6 µM | MDA-MB-435 3.07 µM | NCI-H23 2.37 µM | IGROV-1 2.77 µM

C=CCN1C(=O)CS/C1=N\NC(=O)CSc1nc2ccccc2c(=O)n1CC
inactive: HCT-116 > 100 µM | HCC 2998 > 100 µM | EKVX > 100 µM | KM12 > 100 µM | SK-MEL-2 > 100 µM | U-251 > 100 µM | PC-3 > 100 µM | DU-145 > 100 µM | MCF7 > 100 µM | SK-MEL-5 > 100 µM | SNB-19 > 100 µM | CAKI-1 75.2 µM | SNB-75 > 100 µM | LOX IMVI > 100 µM | SR > 100 µM | SF-295 > 100 µM | MDA-MB-435 > 100 µM | NCI-H23 > 100 µM | IGROV-1 > 100 µM

CC(=O)NC1C(OCc2ccccc2)OC(CO)C(O)C1OCC(=O)NC(C)C(=O)NC(CCC(=O)Nc1ccc2c(c1)CN1C(=O)c3ccccc3C1=N2)C(N)=O (stereo not drawn)
inactive: HCT-116 > 100 µM | HCC 2998 > 100 µM | EKVX > 100 µM | KM12 > 100 µM | SK-MEL-2 > 100 µM | U-251 > 100 µM | PC-3 > 100 µM | DU-145 > 100 µM | MCF7 53.2 µM | SK-MEL-5 > 100 µM | SNB-19 > 100 µM | CAKI-1 > 100 µM | SNB-75 > 100 µM | LOX IMVI > 100 µM | SR > 100 µM | SF-295 > 100 µM | MDA-MB-435 > 100 µM | NCI-H23 > 100 µM | IGROV-1 > 100 µM

COc1cc(/C=C/C(=O)CC(=O)/C=C/c2cc(C)c(O)c(OC)c2)cc(C)c1O
inactive: HCT-116 58.3 µM | HCC 2998 > 100 µM | EKVX > 100 µM | KM12 > 100 µM | SK-MEL-2 > 100 µM | U-251 > 100 µM | PC-3 > 100 µM | DU-145 > 100 µM | MCF7 52.8 µM | SK-MEL-5 > 100 µM | SNB-19 > 100 µM | CAKI-1 > 100 µM | SNB-75 > 100 µM | LOX IMVI > 100 µM | SR 6.82 µM | SF-295 > 100 µM | MDA-MB-435 > 100 µM | NCI-H23 > 100 µM | IGROV-1 > 100 µM
